Reference: the NIST ThermoML archive (doi:10.1016/j.jct.2015.07.028)

Details: Liquid, Closed cell (Static) method

O [water]
Details | vapor or sublimation pressure [kPa]
276.1 K | 0.753
276.16 K | 0.76
278.47 K | 0.894
280.8 K | 1.05
283.11 K | 1.223
285.49 K | 1.43
285.52 K | 1.44
288.24 K | 1.708
290.65 K | 1.994
290.71 K | 2.01
293.51 K | 2.398
295.49 K | 2.697
295.58 K | 2.707
298.22 K | 3.182
298.33 K | 3.202
300.72 K | 3.703
300.8 K | 3.708
302.99 K | 4.213
305.57 K | 4.882
305.6 K | 4.869
307.8 K | 5.499
310.42 K | 6.36
310.49 K | 6.404
312.73 K | 7.192
315.28 K | 8.236
315.37 K | 8.313
317.67 K | 9.333
320.11 K | 10.56
320.2 K | 10.63
322.5 K | 11.93
322.54 K | 11.99
325.01 K | 13.51
